{"source": "patent US9585929B2", "about": "(ZHEJIANG KANGLAITE GROUP CO., LTD., priority 2014, dated 2017)", "key": {"QGY human hepatoma": {"tested_on": "QGY human hepatoma", "assay": "Xenograft model of QGY human hepatoma inoculated subcutaneously in nude mice", "protocol": "A549 Human lung cancer cells cryopreserved in liquid nitrogen were recovered, and incubated in a 37 incubator under 5% CO2. After being subcultured, cells in a logarithmic growth stage were distributed with normal saline to be a cell suspension in a concentration of 1-2×10^7 cells/ml. The cell suspension was inoculated into BALB/C nude mice (SPF grade, 18-20 g, 6 weeks old, male) subcutaneously at right axillary. The tumor tissues were aseptically taken from the 2nd generation of xenograft model of A549 human lung cancer in a vigorous growth stage and cut into small uniform pieces in the size of 1-2 mm^3. The right axillary of each nude mouse was inoculated one piece subcutaneously via a trocar. When the inoculated tumor could be touched, the mice were randomly grouped and administered according to the experimental design program. All contacted feed, padding, cages and equipment, etc., should be autoclaved prior to use. The nude mice were fed in a laminar flow rack. Tumor sizes and animal weights were observed and tested dynamically. Mice in each group were sacrificed 3 weeks later or so, and tumors were surgically removed and weighed. The inhibition rate on tumor was calculated according to the following formula: Inhibition rate %=[(Mean tumor weight of the control group−mean tumor weight of the treatment group)/mean tumor weight of the control group]×100%;\n(§1) Q value of antitumor effect in drug combination was calculated according to Jin's formula: Q=Ea+b/(Ea+Eb−Ea×Eb) Wherein Ea+b=the tumor inhibition rate of drug combination, Ea or Eb=the tumor inhibition rate of drug A or drug B, respectively. If Q value=0.85-1.15, an additive effect (+) was shown; if Q value>1.15, a synergistic effect (++) was shown."}, "[1]": {"tested_on": "Bcap-37 human breast cancer", "assay": "Bcap-37 human breast cancer model in nude mice", "assay_type": "in vivo, BALB/C nude mice", "conditions": "Docetaxel 25 mg/kg ip × 1", "experimental": "The injection of the invention (10 g/100 ml), Docetaxel injection (Taxotere, 20 mg/vial) and normal saline\nBcap-37 human breast cancer: inoculated in BALB/C nude mice (SPF grade), 18-20 g, female\nTumor blocks of well-grown Bcap-37 human breast cancer were homogenized in normal saline to obtain cell suspensions in the concentration of 1-2×10^7 cells/ml. Each nude mouse was inoculated with 0.2 ml of the suspension at the right axilla subcutaneously, and the mice were grouped randomly. The administration began from the 7th day after the inoculation. 20 Days after the inoculation, the mice were sacrificed. Tumor blocks were taken out and weighed. Differences of tumor weight between each experimental group and the control group were compared, and tumor inhibition rates and Q values were calculated."}, "SMMC-7721 human hepatoma": {"tested_on": "SMMC-7721 human hepatoma", "assay": "Xenograft model of SMMC-7721 human hepatoma inoculated subcutaneously in nude mice", "assay_type": "in vivo", "protocol": "A549 Human lung cancer cells cryopreserved in liquid nitrogen were recovered, and incubated in a 37 incubator under 5% CO2. After being subcultured, cells in a logarithmic growth stage were distributed with normal saline to be a cell suspension in a concentration of 1-2×10^7 cells/ml. The cell suspension was inoculated into BALB/C nude mice (SPF grade, 18-20 g, 6 weeks old, male) subcutaneously at right axillary. The tumor tissues were aseptically taken from the 2nd generation of xenograft model of A549 human lung cancer in a vigorous growth stage and cut into small uniform pieces in the size of 1-2 mm^3. The right axillary of each nude mouse was inoculated one piece subcutaneously via a trocar. When the inoculated tumor could be touched, the mice were randomly grouped and administered according to the experimental design program. […] The nude mice were fed in a laminar flow rack. Tumor sizes and animal weights were observed and tested dynamically. Mice in each group were sacrificed 3 weeks later or so, and tumors were surgically removed and weighed. The inhibition rate on tumor was calculated according to the following formula: Inhibition rate %=[(Mean tumor weight of the control group−mean tumor weight of the treatment group)/mean tumor weight of the control group]×100%;\nas §1"}, "[2]": {"tested_on": "PANC-1 human pancreatic cancer", "assay": "PANC-1 human pancreatic cancer model in nude mice", "assay_type": "in vivo, BALB/C nude mice", "conditions": "Gemcitabine 60 mg/kg iv × 1", "protocol": "as §1\nPANC-1 human pancreatic cancer cells: inoculated in BALB/C nude mice, 16-18 g, female\nTumor blocks of well-grown PANC-1 human pancreatic cancer were inoculated subcutaneously in 4-week-old female BALB/C nude mice. The nude mice were grouped randomly and administered. One week after the end of the administration, the mice were sacrificed and dissected. Tumor blocks were taken out and weighed. Differences of tumor weight between each experimental group and the control group were compared and the tumor inhibition rates were calculated."}, "LM-3 human hepatoma": {"tested_on": "LM-3 human hepatoma", "assay": "Xenograft model of LM-3 human hepatoma inoculated subcutaneously in nude mice", "experimental": "The injection of the invention (10 g/100 ml), cyclophosphamide (Jiangsu Hengrui Medicine Co., Ltd), blank fat emulsion and normal saline"}, "S180 sarcoma": {"tested_on": "S180 sarcoma", "assay": "S180 sarcoma model in mice", "assay_type": "in vivo, Kunmin mice", "conditions": "CTX 30 mg/kg ip × 2(1, 3)", "experimental": "The injection of the invention (10 g/100 ml), Cyclophosphamide (CTX), Mitoxantrone (DHAD), Mitomycin (MMC) and normal saline\nAscitic fluid of mice having well-grown […] sarcoma was diluted with normal saline (1:4) to obtain a cell suspension of about 1-2×10^7 cells/ml. Each mouse was inoculated with 0.2 ml of the suspension subcutaneously at the right axilla, and the mice were grouped randomly. The administration began from the next day according to the dosage program in Table 7. On the tenth day after the inoculation of S180, animals were sacrificed via cervical dislocation and dissected to take out the tumor block. Weights of tumor were compared and inhibition rates were calculated for each group."}, "W256 cancer sarcoma": {"tested_on": "W256 cancer sarcoma", "assay": "W256 cancer sarcoma model in rats", "assay_type": "in vivo, Wistar rats", "experimental": "The injection of the invention (10 g/100 ml), Cyclophosphamide (CTX) and normal saline\nW256 cancer sarcoma: inoculated in Wistar rats, 50-60 g, female\nAscitic fluid of rats with well-grown W256 cancer sarcoma was diluted with normal saline to obtain a cell suspension of about 1-2×10^7 cells/ml. Each rat was inoculated with 0.2 ml of the suspension at the right axilla subcutaneously. The rats were grouped randomly next day and began administration. Two weeks later, animals were sacrificed and dissected to take out the tumor block. Weights of tumor were compared between each experimental group and the control group and tumor inhibition rates were calculated."}, "[3]": {"conditions": "Gemcitabine 25 mg/kg iv × 3 q 3 d"}, "[4]": {"conditions": "Gemcitabine 50 mg/kg iv × 3 q 3 d"}, "[5]": {"conditions": "cyclophosphamide 15 mg/kg ip × 7 qd"}, "[6]": {"conditions": "cyclophosphamide 30 mg/kg ip × 7 qd"}}, "note": "Structures can show the parent of a compound that is named as a salt. Marks after values point to notes of the source that are not given here.", "data": [{"smiles": "COc1cccc2c1C(=O)c1c(O)c3c(c(O)c1C2=O)C[C@@](O)(C(=O)CO)C[C@@H]3O[C@H]1C[C@H](N)[C@H](O)[C@H](C)O1", "note": "[Adriamycin]", "values": [{"measurement": "Inhibition rate", "setting": "QGY human hepatoma; Adriamycin 1 mg/kg ip × 7 qd", "result": 38.41, "unit": "%"}, {"measurement": "Weight of animal start", "setting": "QGY human hepatoma; Adriamycin 1 mg/kg ip × 7 qd", "result": 21.3, "unit": "g"}, {"measurement": "Weight of tumor x ± SD", "setting": "QGY human hepatoma; Adriamycin 1 mg/kg ip × 7 qd", "result": "0.712 ± 0.18", "unit": "g"}, {"measurement": "Inhibition rate", "setting": "QGY human hepatoma; Adriamycin 2 mg/kg ip × 7 qd", "result": 70.76, "unit": "%"}, {"measurement": "Weight of tumor x ± SD", "setting": "QGY human hepatoma; Adriamycin 2 mg/kg ip × 7 qd", "result": "0.338 ± 0.17", "unit": "g"}]}, {"smiles": "CC(=O)O[C@@]12CO[C@@H]1C[C@H](O)[C@@]1(C)C(=O)[C@H](O)C3=C(C)[C@@H](OC(=O)[C@H](O)[C@@H](NC(=O)OC(C)(C)C)c4ccccc4)C[C@@](O)([C@@H](OC(=O)c4ccccc4)[C@H]21)C3(C)C", "note": "[Docetaxel]", "values": [{"measurement": "Inhibition rate", "setting": "[1]", "result": 56.80, "unit": "%"}, {"measurement": "Weight of tumor x ± SD", "setting": "[1]", "result": "1.27 ± 0.88", "unit": "g"}]}, {"smiles": "Nc1ccn([C@@H]2O[C@H](CO)[C@@H](O)C2(F)F)c(=O)n1", "note": "[Gemcitabine, gemcitabine hydrochloride]", "values": [{"measurement": "Inhibition rate", "setting": "SMMC-7721 human hepatoma; [3]", "result": 49.14, "unit": "%"}, {"measurement": "Weight of animal end", "setting": "SMMC-7721 human hepatoma; [3]", "result": 25.1, "unit": "g"}, {"measurement": "Weight of animal start", "setting": "SMMC-7721 human hepatoma; [3]", "result": 20.1, "unit": "g"}, {"measurement": "Weight of tumor x ± SD", "setting": "SMMC-7721 human hepatoma; [3]", "result": "0.886 ± 0.24", "unit": "g"}, {"measurement": "Inhibition rate", "setting": "SMMC-7721 human hepatoma; [4]", "result": 87.66, "unit": "%"}, {"measurement": "Weight of animal end", "setting": "SMMC-7721 human hepatoma; [4]", "result": 24.2, "unit": "g"}, {"measurement": "Weight of tumor x ± SD", "setting": "SMMC-7721 human hepatoma; [4]", "result": "0.215 ± 0.11", "unit": "g"}, {"measurement": "Inhibition rate", "setting": "[2]", "result": 24.61, "unit": "%"}, {"measurement": "Weight of tumor x ± SD", "setting": "[2]", "result": "0.1443 ± 0.081", "unit": "g"}]}, {"smiles": "O=P1(N(CCCl)CCCl)NCCCO1", "note": "(stereo not drawn) [cyclophosphamide, Cyclophosphamide]", "values": [{"measurement": "Inhibition rate", "setting": "LM-3 human hepatoma; [5]", "result": 27.82, "unit": "%"}, {"measurement": "Weight of animal end", "setting": "LM-3 human hepatoma; [5]", "result": 24.8, "unit": "g"}, {"measurement": "Weight of animal start", "setting": "LM-3 human hepatoma; [5]", "result": 20.7, "unit": "g"}, {"measurement": "Weight of tumor x ± SD", "setting": "LM-3 human hepatoma; [5]", "result": "1.108 ± 0.09", "unit": "g"}, {"measurement": "Inhibition rate", "setting": "LM-3 human hepatoma; [6]", "result": 82.74, "unit": "%"}, {"measurement": "Weight of animal end", "setting": "LM-3 human hepatoma; [6]", "result": 25.0, "unit": "g"}, {"measurement": "Weight of animal start", "setting": "LM-3 human hepatoma; [6]", "result": 20.5, "unit": "g"}, {"measurement": "Weight of tumor x ± SD", "setting": "LM-3 human hepatoma; [6]", "result": "0.265 ± 0.12", "unit": "g"}, {"measurement": "Inhibition rate", "setting": "S180 sarcoma", "result": "41.77* %"}, {"measurement": "Weight of tumor x ± SD", "setting": "S180 sarcoma", "result": "0.92 ± 0.21", "unit": "g"}, {"measurement": "Inhibition rate", "setting": "W256 cancer sarcoma; CTX 10 mg/kg iv × 2(3, 5)", "result": "37.83* %"}, {"measurement": "Weight of tumor x ± SD", "setting": "W256 cancer sarcoma; CTX 10 mg/kg iv × 2(3, 5)", "result": "2.12 ± 1.22", "unit": "g"}, {"measurement": "Inhibition rate", "setting": "W256 cancer sarcoma; CTX 30 mg/kg iv × 7", "result": "87.68** %"}, {"measurement": "Weight of tumor x ± SD", "setting": "W256 cancer sarcoma; CTX 30 mg/kg iv × 7", "result": "0.42 ± 0.85", "unit": "g"}]}]}
